The target of this test is Lysine-specific histone demethylase 1A (Homo sapiens, UniProt O60341). As to the kind of experiment: In Vitro Enzyme Inhibition Assay: The enzymatic assay of LSD1 activity is based on Time Resolved-Fluorescence Resonance Energy Transfer (TR-FRET) detection. The inhibitory properties of compounds to LSD1 were determined in 384-well plate format under the following reaction conditions: 0.1-0.5 nM LSD1, 50 nM H3K4mel-biotin labeled peptide (Anaspec cat # 64355), 2 μM FAD in assay buffer of 50 mM ….

Molecules are shown by their SMILES.

The IC50 is the concentration at which inhibition is half-maximal. High values mean a need for much substance, low ones inhibition by little substance. Take `Cn1c(N2CCC(N)CC2)nc(-c2ccc(C#N)c(F)c2)c(Cl)c1=O`: the IC50 is under 0.1 µM.

The record behind these values is ChEMBL document CHEMBL5726429, “Inhibitors of lysine specific demethylase-1” (2017).
